Source: ChEMBL document CHEMBL1125070, “Benzotriazinones as "virtual ring" mimics of o-methoxybenzamides: novel and potent 5-HT3 receptor antagonists” (J Med Chem, 1990)

target: Serotonin 3 (5-HT3) receptor (Rattus norvegicus) (UniProt P35563+Q9JJ16); experiment: Antagonistic activity against 5-hydroxytryptamine 3 receptor as inhibition of 5-HT-induced bradycardia (von Bezold-jarisch reflex) in anesthetized rat; format: functional

How did the ID50 turn out when `CN1[C@@H]2CC[C@H]1C[C@@H](OC(=O)c1c[nH]c3ccccc13)C2` was run?
The ID50 was 0.0014 mg/kg.

Which ID50 does the source give for `CN1C2CCC1CC(n1cnc3cc(N)c(Cl)cc3c1=O)C2` (stereo unspecified) here?
Its ID50 is 0.33 mg/kg.

`COc1cc(N)c(Cl)cc1C(=O)NC1CC2CCC(C1)N2C` (stereo unspecified) was tested. Which ID50 did it give?
The ID50 was 0.0008 mg/kg.

For `COc1ccc(Cl)cc1C(=O)NC1CC2CCC(C1)N2C` (stereo unspecified), which ID50 is on record?
Its ID50 is 0.015 mg/kg.

How did the ID50 turn out when `CN1C2CCC1CC(n1nnc3cc([N+](=O)[O-])c(Cl)cc3c1=O)C2` (stereo unspecified) was run?
The ID50 was 0.013 mg/kg.

Which ID50 does the source give for `Nc1cc2nnn(C3CN4CCC3CC4)c(=O)c2cc1Cl` (stereo unspecified) here?
The ID50 was 0.0036 mg/kg.

Which ID50 does the source give for `CN1C2CCC1CC(n1nnc3ccc(Cl)cc3c1=O)C2` (stereo unspecified) here?
The ID50 was 0.012 mg/kg.

For `CN1[C@@H]2CC[C@H]1C[C@@H](OC(=O)c1cc(Cl)cc(Cl)c1)C2`, which ID50 is on record?
Its ID50 is 0.035 mg/kg.

`COc1cc(N)ccc1C(=O)NC1CC2CCC(C1)N2C` (stereo unspecified) was tested. Which ID50 did it give?
Its ID50 is 0.016 mg/kg.

`CN1C2CCC1CC(n1nnc3ccccc3c1=O)C2` (stereo unspecified) was tested. Which ID50 did it give?
Its ID50 is over 0.05 mg/kg.

For `CN1C2CCC1CC(NC(=O)c1ccc(N)c(Cl)c1)C2` (stereo unspecified), which ID50 is on record?
Its ID50 is 0.036 mg/kg.
